We go through 1 molecule from publication PMC11467779, “New anti-ovarian cancer quinolone derivatives acting by modulating microRNA processing machinery” (RSC Medicinal Chemistry, 2024).

The target of one test is T1, hTopII (Homo sapiens, UniProt P11388).
T1 construct: endogenous in cells
As to the kind of experiment: Detection of hTOP2α cleavage complexes (cleavage assay). The class given is cell-based. The settings on record: 100 μM. The protocol:
(§1) After compound treatments, 1 × 10^6 human cells in 35 mm dish per sample were washed with 1× phosphate-buffered saline (PBS) and lysed with 600 μL of DNAzol (Invitrogen), followed by precipitation with 300 μL of 200 proof ethanol. The nucleic acids were collected, washed with 75% ethanol, resuspended in 200 μL of TE buffer, and then heated at 65 °C for 15 min, followed by shearing with sonication (40% output for 10 s pulse and 10 s rest for four times). The samples were centrifuged at 15 000 rpm for 5 min at 4 °C, and the supernatant were collected. 1 μL of each sample was removed for spectrophotometric measurement of absorbance at 260 nm to quantitate DNA content (NanoDrop). 2 μg of each sample was subjected to slot-blot for immunoblotting using anti-hTOP1 antibody (BD Pharmingen, 556597) and anti-hTOP2α antibody (Santa Cruz biotechnology, 365916).[51]

The test system of another test is KO TRBP HCCLM3 cells. The test can be described thus: Antiproliferative effect on KO TRBP HCCLM3 cells (CCK-8). It is filed as cell-based, human. The following applies: 30 μM, 48 hours. On the procedure:
HCCLM3 and SK-Hep-1 cells were seeded into 96-well plates at a density of 10 000 cells per well and allowed to adhere overnight. Subsequently, the cells were treated with the following substances: 0.1% DMSO as the negative control, various concentrations of the test compounds, and 125 μM enoxacin as the positive control. After 48 h of incubation, the original culture medium was removed, and the cells were washed twice with PBS. Then, 100 μL of DMEM culture medium containing 10% CCK-8 (Bimake, USA) was added to each well. The plates were incubated for 30 minutes at 37 °C. To determine the […], measurements were taken at a wavelength of 450 nm using a Varioskan from Thermo Fisher Scientific.

A further test relates to miR-21. As to the kind of experiment: miR-21 expression in HeLa cells (qRT-PCR). It is filed as cell-based, human. The following applies: 50 μM, 6 hours. The protocol: Total RNA was extracted using the Direct-zol RNA MiniPrep kit (Zymo Research) with on-column DNase treatment, according to the manufacturer's instructions. Reverse transcription was carried out with SuperScript VILO cDNA Synthesis Kit (Life Technologies) and the cDNA samples were analyzed by qRT-PCR using PowerUp SYBR Green Master Mix (Thermo Fisher Scientific). For miR-21 expression analysis total RNA was retrotranscribed using miRCURY® LNA® RT Kit (Qiagen) and the cDNA was analyzed by using miRCURY® LNA® miRNA PCR Assay (Qiagen). The oligonucleotides used are the following: GAPDH_FW […]; GAPDH_REV […]; ATP5O_FW […]; ATP5O_REV […]; hsa-miR-21-5p miRCURY LNA miRNA PCR Assay (YP00204230); U6 snRNA (v2) miRCURY LNA miRNA PCR Assay (YP02119464).

In another test the test system is OVCA433. The test can be described thus: Antiproliferative effect against OVCA433 (GI50). The settings on record: Homo sapiens, 72 hours of treatment, cell count. It is filed as cell-based. The protocol:
SKOV-3, A2780 and A2780 CIS were cultured and maintained, as previously described,[50] at 37 °C in RPMI 1640 medium (Euroclone) supplemented with 10% fetal bovine serum (FBS; Euroclone), L-glutamine and penicillin/streptomycin (SIGMA-ALDRICH). OVCA433, HEK-293T, HeLa, HCCLM3, SK-Hep-1, MCF-7, A549 and HCT-116 cells were maintained in DMEM medium (Euroclone) containing 10% FBS (Euroclone), L-glutamine and penicillin/streptomycin (SIGMA-ALDRICH). Wi-38 cells were cultured in DMEM medium (Euroclone) supplemented with 10% FBS (Euroclone), L-glutamine and penicillin/streptomycin (SIGMA-ALDRICH), and 1% non-essential amino acids (NEAA; Euroclone). The cultures were maintained in a constant temperature incubator at 37 °C with 5% CO2. […] Once cell adhesion had been promoted, the compounds were added to the culture medium. After 72 hours of treatment, the cells were counted, and the data analyzed by linear regression. Each experiment was carried out three times in triplicate and three separate cell counts were made for each sample. […] Afterwards, the concentration range was narrowed to the relative value obtained in the first evaluation in order to obtain an accurate value.

Another test deals with T2, hTopI (Homo sapiens, UniProt P11387).
T2 construct: endogenous in cells
T2 sequence (P11387 whole entry): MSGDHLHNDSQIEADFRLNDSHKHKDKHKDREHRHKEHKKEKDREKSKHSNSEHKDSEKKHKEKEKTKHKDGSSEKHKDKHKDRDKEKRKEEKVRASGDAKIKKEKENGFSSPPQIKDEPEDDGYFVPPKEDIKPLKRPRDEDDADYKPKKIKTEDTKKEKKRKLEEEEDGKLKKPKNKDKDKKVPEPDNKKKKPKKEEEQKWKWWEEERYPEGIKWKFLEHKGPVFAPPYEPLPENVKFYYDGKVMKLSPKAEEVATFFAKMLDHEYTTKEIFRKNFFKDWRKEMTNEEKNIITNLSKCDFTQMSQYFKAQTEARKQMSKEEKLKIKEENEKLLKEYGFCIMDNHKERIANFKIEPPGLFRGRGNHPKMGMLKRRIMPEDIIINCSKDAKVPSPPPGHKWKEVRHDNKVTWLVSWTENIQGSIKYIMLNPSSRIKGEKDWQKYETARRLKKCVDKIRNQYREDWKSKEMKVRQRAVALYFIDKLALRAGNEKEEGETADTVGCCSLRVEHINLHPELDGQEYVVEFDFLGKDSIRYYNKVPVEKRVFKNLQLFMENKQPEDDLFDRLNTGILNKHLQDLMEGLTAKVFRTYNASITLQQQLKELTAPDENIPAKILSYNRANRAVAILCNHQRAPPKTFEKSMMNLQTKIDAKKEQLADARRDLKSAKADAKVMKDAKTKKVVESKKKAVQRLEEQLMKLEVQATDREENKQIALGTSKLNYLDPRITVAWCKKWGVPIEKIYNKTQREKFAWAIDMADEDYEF
As to the kind of experiment: Detection of hTOP1 cleavage complexes (cleavage assay). The class given is cell-based. The settings on record: 100 μM. The protocol: as §1

For a further test, the system named is HCT-116 (colon cancer). The test can be described thus: Proliferation of HCT-116 cells (trypan blue count). The settings on record: 30 μM, 72 hours. The class given is cell-based, human. The protocol: A2780 and SKOV-3 cells were treated with 50 μM of 33 for 72 h before RNA and protein extraction and expression analyses. A2780 and A2780 CIS were treated with 33 (30 μM) and/or cisplatin (1 μM, Sigma-Aldrich) for 48 hours while MCF-7, A549 and HCT-116 were treated with 33 (30 μM) for 72 hours. Total cell number and viability have been assessed using Trypan Blue Solution (Thermo Fisher Scientific) and Countess™ 3 Automated Cell Counter (Thermo Fisher Scientific).

T1 sequence (P11388 whole entry): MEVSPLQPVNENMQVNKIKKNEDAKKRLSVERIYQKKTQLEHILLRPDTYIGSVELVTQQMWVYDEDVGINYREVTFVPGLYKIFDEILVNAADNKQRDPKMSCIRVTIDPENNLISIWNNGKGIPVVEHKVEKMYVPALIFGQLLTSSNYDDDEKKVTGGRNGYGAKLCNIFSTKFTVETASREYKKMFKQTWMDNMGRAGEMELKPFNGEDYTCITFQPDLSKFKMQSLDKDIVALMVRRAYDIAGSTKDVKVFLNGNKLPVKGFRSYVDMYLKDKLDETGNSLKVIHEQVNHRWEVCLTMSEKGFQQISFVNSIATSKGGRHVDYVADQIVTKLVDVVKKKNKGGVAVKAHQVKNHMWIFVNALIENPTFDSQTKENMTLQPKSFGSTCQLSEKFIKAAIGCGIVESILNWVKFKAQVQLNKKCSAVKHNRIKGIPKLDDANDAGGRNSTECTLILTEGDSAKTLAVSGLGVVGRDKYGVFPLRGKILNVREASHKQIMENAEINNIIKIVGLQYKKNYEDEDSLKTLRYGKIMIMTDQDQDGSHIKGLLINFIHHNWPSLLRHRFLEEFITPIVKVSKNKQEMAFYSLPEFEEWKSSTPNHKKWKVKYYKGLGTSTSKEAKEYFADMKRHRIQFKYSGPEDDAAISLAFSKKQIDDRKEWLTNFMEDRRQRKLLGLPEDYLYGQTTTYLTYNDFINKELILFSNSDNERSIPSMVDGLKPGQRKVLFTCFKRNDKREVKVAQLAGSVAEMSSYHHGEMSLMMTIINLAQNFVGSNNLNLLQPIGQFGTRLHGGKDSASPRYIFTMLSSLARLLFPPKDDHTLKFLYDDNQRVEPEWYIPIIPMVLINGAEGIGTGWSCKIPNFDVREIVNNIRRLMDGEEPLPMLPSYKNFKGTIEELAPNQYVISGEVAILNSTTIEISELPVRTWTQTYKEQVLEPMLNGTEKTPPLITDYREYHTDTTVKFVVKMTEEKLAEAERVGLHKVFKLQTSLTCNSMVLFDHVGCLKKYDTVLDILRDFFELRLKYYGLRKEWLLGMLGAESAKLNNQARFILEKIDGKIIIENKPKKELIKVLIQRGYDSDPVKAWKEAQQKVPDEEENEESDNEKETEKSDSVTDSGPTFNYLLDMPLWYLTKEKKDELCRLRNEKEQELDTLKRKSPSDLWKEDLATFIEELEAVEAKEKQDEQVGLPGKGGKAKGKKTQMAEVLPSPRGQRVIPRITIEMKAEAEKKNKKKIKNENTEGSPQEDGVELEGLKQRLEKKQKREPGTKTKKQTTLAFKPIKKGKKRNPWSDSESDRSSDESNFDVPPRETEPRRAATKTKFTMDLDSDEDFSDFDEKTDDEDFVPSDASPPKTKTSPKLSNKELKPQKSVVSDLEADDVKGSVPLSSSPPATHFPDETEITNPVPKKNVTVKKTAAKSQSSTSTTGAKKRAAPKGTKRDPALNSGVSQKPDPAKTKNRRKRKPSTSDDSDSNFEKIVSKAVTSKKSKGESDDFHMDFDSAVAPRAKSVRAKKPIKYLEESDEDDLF

With `O=C(O)c1cn(C2CC2)c2cc(N3CCc4ccccc4C3)c(F)cc2c1=O` [Compound 33, 1-Cyclopropyl-7-(3,4-dihydroisoquinolin-2(1H)-yl)-6-fluoro-4-oxo-1,4-dihydroquinoline-3-carboxylic acid], the “trapping/inhibition of hTopII (cleavage assay)” value at hTopII is on record as “no inhibition or trapping activity”. For the same molecule, the “antiproliferative effect on KO TRBP HCCLM3 cells” value in the test with KO TRBP HCCLM3 cells is “no antiproliferative effect”. Besides, the “miR-21 level in HeLa cells” value with miR-21 is given as “Upregulation of miR-21”. The same molecule had a GI50 in the test on OVCA433 of 31 ± 6.75 µM. Also, at hTopI, the “trapping/inhibition of hTopI (cleavage assay)” value is “no inhibition or trapping activity”. Moreover, the “effect on HCT-116 cell proliferation” value with HCT-116 (colon cancer) is listed as “significant inhibitory effect on cell proliferation”.
